Data published in US7625948B2, “Ester compound and medicinal use thereof” (Japan Tobacco Inc., priority 2002, dated 2009).

Test system: HepG2 cells
Test: Test Example 2: inhibition of apolipoprotein B secretion from HepG2 cells, ELISA (also used for metabolites in Test Example 8)
Format: cell-based
Settings: Homo sapiens, 24 hours, apo B in supernatant by ELISA, read-out: Test Example 2 Inhibition of apo B secretion IC50
Method: Inhibition of Apolipoprotein B Secretion from HepG2 Cells
HepG2 cells were suspended in Dulbecco's Modified Eagle's Medium (DMEM) (containing 10% fetal bovine serum, 100 units/mL penicillin and 100 μg/mL streptomycin), and placed on a 96-well plate (4×10^4 cells/well), then incubated for 24 hours. After removal of the medium, DMEM was replaced by a medium containing a sample dissolved in DMSO or a medium containing DMSO (concentration of DMSO: 0.5%) and incubation was further performed for 24 hours, after which the supernatant was recovered, and concentration of apo B in the supernatant was assayed by Enzyme-Linked Immunosorbent Assay (ELISA)
ELISA was carried out as follows. Anti-human apo B monoclonal antibody (0.5 μg/well) diluted with a solution of sodium carbonate in sodium bicarbonate buffer (50 mL, pH 9.6) was placed in a 96-well plate for ELISA, and allowed to stand at room temperature for 15 hours. After washing the plate, a blocking solution (250 μL/well) was placed in the well, and allowed to stand at room temperature for 1.5 hours. After washing the plate, a standard and a sample (100 μL/well) were placed in the well and allowed to stand at room temperature for one hour. The standard was prepared by adjusting the concentration of the purified human apo B with the DMEM to 0 to 1000 ng/mL. After washing the plate, an anti-human apo B polyclonal antibody labeled with a horse radish peroxidase which was diluted in 1:1000 with DEME (100 μL/well), and allowed to stand at room temperature for one hour. After washing the plate, 2,2-azinobis(3-ethylbenzothiazoline-6-sulfonic acid) solution (100 μL/well) was placed in the well, and allowed to stand at room temperature for one hour. The reaction was stopped by addition of 2% oxalic acid (100 μL/well), and absorbency at 405 nm was measured. Concentration of apo B in the sample was calculated on the basis of a standard curve of the standard. Inhibition rate (%) was calculated from the assayed values in accordance with the following equation.
Inhibition rate (%)=100×(1 minus (concentration of apo B in sample group/concentration of apo B in DMSO group).
Based on the above equation, 50% inhibition concentration (IC50) was determined.
Inhibitory Activity on MTP and apo B Secretion Inhibition by Metabolites
In a similar manner to Test Examples 1 and 2, the activity of metabolites was assayed.

SMILES	IC50 [nM]
CCOC(=O)C(COC(=O)Cc1ccc(NC(=O)c2ccccc2-c2ccc(Cl)cc2)c(C(=O)N(C)C)c1)(C(=O)OCC)c1ccccc1 [Example 2-42]	1.8
CCOC(=O)C(COC(=O)Cc1ccc(NC(=O)c2ccccc2-c2ccc(C(F)(F)F)cc2)c(C(=O)N(C)C)c1)(C(=O)OCC)C(=O)OCC [Example 2-118]	49
CCNC(=O)C(COC(=O)c1ccc(CNC(=O)c2ccccc2-c2ccc(C(F)(F)F)cc2)cc1)(C(=O)NCC)c1ccccc1 [Example 9-6]	59
CCOC(=O)C(COC(=O)Cc1ccc(NC(=O)c2sc(C)nc2-c2ccc(C(F)(F)F)cc2)cc1)(C(=O)OCC)c1ccccc1 [Example 1-74]	680
CCOC(=O)C(COC(=O)Cc1ccc(NC(=O)c2ccccc2-c2ccc(C(F)(F)F)cc2)c(C(=O)N(C)C)c1)c1ccccc1 (centres unmarked) [Example 2-50]	21
CCOC(=O)C(COC(=O)Cc1ccc(NC(=O)c2ccccc2Nc2cccc(C(F)(F)F)c2)c(C(=O)N(C)C)c1)(C(=O)OCC)c1ccccc1 [Example 2-95]	18
CCOC(=O)C(COC(=O)Cc1cc(C(=O)N(C)C)c(NC(=O)c2ccccc2-c2ccc(C(F)(F)F)cc2)c(Cl)c1F)(C(=O)OCC)c1ccccc1 [Example 2-66]	57
CCNC(=O)C(COC(=O)Cc1ccc(NC(=O)c2ccccc2-c2ccc(C(F)(F)F)cc2)c(O)c1)(C(=O)NCC)c1ccccc1 [Example 3-2, {3-Hydroxy-4-[(4′-trifluoromethylbiphenyl-2-carbonyl)amino]phenyl}acetic acid 2,2-bisethylcarbamoyl-2-phenylethyl ester]	4.2
CCOC(=O)C(COC(=O)Cc1ccc(NC(=O)c2ccccc2-c2ccc(C(F)(F)F)cc2)c(Cl)c1)(C(=O)OCC)c1ccccc1 [Example 1-84]	4.4
CCOC(=O)C(COC(=O)Cc1ccc(OC(=O)c2ccccc2-c2ccc(C(F)(F)F)cc2)c(C(=O)N(C)C)c1)(C(=O)OCC)c1ccccc1 [Example 2-96]	81
CCOC(=O)C(CCOC(=O)Cc1ccc(NC(=O)c2ccc(C(F)(F)F)cc2-c2ccc(C(F)(F)F)cc2)c(C(=O)N(C)C)c1)(C(=O)OCC)c1ccccc1 [Example 2-84]	2.01
CCOC(=O)C(COC(=O)Cc1ccc(NC(=O)c2ccccc2C(F)(F)F)c(C(=O)N(C)C)c1)(C(=O)OCC)c1ccccc1 [Example 2-31]	43
CCOC(=O)C(COC(=O)Cc1ccc(NC(=O)c2ccc(Cl)cc2-c2ccc(C(F)(F)F)cc2)c(C(=O)N(C)C)c1)(C(=O)OCC)c1ccccc1 [Example 2-54]	8.5
CCOC(=O)C(COC(=O)Cc1ccc(NC(=O)c2ccccc2-c2ccc(C(F)(F)F)cc2)c(C(=O)N(C)C)c1)(C(=O)OCC)c1ccccc1OC [Example 2-75]	12.5
CCNC(=O)C(COC(=O)Cc1ccc(NC(=O)c2cccnc2-c2ccc(C(F)(F)F)cc2)cc1)(C(=O)NCC)c1ccccc1 [Example 1-76]	120
CCCC(=O)N[C@H](COC(=O)Cc1ccc(NC(=O)c2ccccc2-c2ccc(C(F)(F)F)cc2)c(C(=O)N(C)C)c1)c1ccccc1 [Example 2-36]	7.4
CCOC(=O)C(COC(=O)Cc1ccc(NC(=O)c2ccc(OC(C)C)cc2-c2ccc(C(F)(F)F)cc2)c(C(=O)N(C)C)c1)(C(=O)OCC)c1ccccc1 [Example 2-83]	8.87
CCOC(=O)c1cc(CC(=O)OCC(C(=O)OCC)(C(=O)OCC)c2ccccc2)ccc1NC(=O)c1ccccc1-c1ccc(C(F)(F)F)cc1 [Example 9-4, 2-(2-{3-Ethoxycarbonyl-4-[(4′-trifluoromethylbiphenyl-2-carbonyl)amino]phenyl}acetoxymethyl)-2-phenylmalonic acid diethyl ester]	9.9
CCOC(=O)C(COC(=O)Cc1ccc2c(c1)C(=O)N2C(=O)c1ccccc1-c1ccc(C(F)(F)F)cc1)(C(=O)OCC)c1ccccc1 [Example 9-17]	23
CCOC(=O)C(COC(=O)Cc1ccc(NC(=O)c2ccccc2-c2ccc(C(F)(F)F)cc2)c(OC(C)C)c1)(C(=O)OCC)c1ccccc1 [Example 3-9]	1.6
CCOC(=O)C(COC(=O)Cc1ccc(NC(=O)c2ccccc2-c2ccc(F)cc2)c(C(=O)N(C)C)c1)(C(=O)OCC)c1ccccc1 [Example 2-33]	13
CC(C)N[C@@H](COC(=O)Cc1ccc(NC(=O)c2ccccc2-c2ccc(C(F)(F)F)cc2)c(C(=O)N(C)C)c1)c1ccccc1 [Example 2-29]	91
CN(C)C(=O)c1cc(CC(=O)OC[C@@H](NS(C)(=O)=O)c2ccccc2)ccc1NC(=O)c1ccccc1-c1ccc(C(F)(F)F)cc1 [Example 2-49]	49
CCNC(=O)C(COC(=O)Cc1ccc(NC(=O)c2ccccc2C(F)(F)F)c(C(=O)N(C)C)c1)(C(=O)NCC)c1ccccc1 [Example 2-30]	27

The next molecules have a lower IC50 than those just listed; values first:

IC50 [nM]	SMILES
0.49	CCOC(=O)C(COC(=O)Cc1ccc(NC(=O)c2cccc(OC)c2-c2ccc(C(F)(F)F)cc2)c(C(=O)N(C)C)c1)(C(=O)OCC)c1ccccc1 [Example 2-85]
0.53	CCNC(=O)C(COC(=O)Cc1ccc(NC(=O)c2ccccc2-c2ccc(C(F)(F)F)cc2)c(CC(C)C)c1)(C(=O)NCC)c1ccccc1 [Example 1-82]
0.99	CCOC(=O)C(COC(=O)Cc1ccc(NC(=O)c2ccccc2-c2ccc(C(F)(F)F)cc2)c(C(=O)N(C)C)c1)(C(=O)OCC)C1CCCC1 [Example 2-40]
1.2	CCOC(=O)C(COC(=O)Cc1ccc(NC(=O)c2ccccc2-c2ccc(C(F)(F)F)cc2)c(C(=O)N(C)C)c1)(C(=O)OCC)C1CCCCC1 [Example 2-41]
0.54	CCOC(=O)C(COC(=O)Cc1ccc(NC(=O)c2ccccc2-c2ccc(C(F)(F)F)cc2)c(C(=O)N(C)C)c1)(C(=O)OCC)c1ccccc1Cl [Example 2-71]
0.93	CCOC(=O)C(COC(=O)Cc1ccc(NC(=O)c2ccccc2-c2ccc(C(F)(F)F)cc2)c(C(=O)N(C)C)c1)(C(=O)OCC)c1ccc(C)s1 [Example 2-109]
1.2	CCOC(=O)C(COC(=O)Cc1ccc(NC(=O)c2cc(C)ccc2-c2ccc(C(F)(F)F)cc2)c(C(=O)N(C)C)c1)(C(=O)OCC)c1ccccc1 [Example 2-47]
0.93	CN(C)C(=O)c1cc(CC(=O)OCC(C(=O)OCC(F)(F)F)(C(=O)OCC(F)(F)F)c2ccccc2)ccc1NC(=O)c1ccccc1-c1ccc(C(F)(F)F)cc1 [Example 2-56]
0.72	CCCOc1cc(CC(=O)OCC(C(=O)NCC)(C(=O)NCC)c2ccccc2)ccc1NC(=O)c1ccccc1-c1ccc(C(F)(F)F)cc1 [Example 3-12]
0.84	CCOC(=O)CC(COC(=O)Cc1ccc(NC(=O)c2ccccc2-c2ccc(C(F)(F)F)cc2)c(C(=O)N(C)C)c1)(C(=O)OCC)c1ccccc1 (centres unmarked) [Example 2-74]
0.37	CCOC(=O)C(COC(=O)Cc1ccc(NC(=O)c2ccccc2-c2ccc(C(F)(F)F)c(Cl)c2)c(C(=O)N(C)C)c1)(C(=O)OCC)c1ccccc1 [Example 2-62]
0.82	CCOC(=O)C(COC(=O)Cc1ccc(NC(=O)c2ccccc2-c2ccc(C(F)(F)F)cc2)c(C(=O)N(C)OC)c1)(C(=O)OCC)c1ccccc1 [Example 9-27]
0.44	CCOC(=O)C(COC(=O)Cc1ccc(NC(=O)c2ccccc2-c2ccc(C(F)(F)F)cc2)c(C(=O)N(C)C)c1)(C(=O)OCC)c1ccsc1 [Example 2-106]
0.85	CCOC(=O)C(COC(=O)Cc1ccc(NC(=O)c2ccccc2-c2ccc(C(F)(F)F)cc2)c(C(=O)N(C)C)c1)(C(=O)OCC)c1cccc(OC)c1 [Example 2-76]
